Assay [1] concerns isolated mouse ventricular myocytes. The assay can be described thus: Sarcomere shortening in field-stimulated isolated mouse ventricular myocytes. The format is cell-based. On the procedure:
Wild type 2-4 month old mice were anesthetized with intraperitoneal pentobarbital sodium (100 mg/kg/ip). Hearts were perfused as previously described. Mongillo, M. et al., Circ. Res., 98, 226-234 (2006). To assess for sarcomere shortening, cells were imaged using field stimulation (Warner instruments) in an inverted fluorescence microscope (Diaphot 200; Nikon, Inc). Sarcomere length was measured by real-time Fourier transform (IonOptix MyoCam, CCCCD100M) and cell twitch amplitude is expressed as a percentage of resting cell length. Twitch kinetics was quantified by measuring the time to peak shortening and the time from peak shortening to 50% relaxation. For whole calcium transient measurements, myocytes were loaded with the Ca^2+ indicator fluo-4/AM (Molecular Probes, 20 μM for 30 min) and Ca^2+ transients were measured under field-stimulation at 0.5 Hz in perfusion solution by confocal laser scanning microscope (LSM510, Carl Zeiss). Digital image analysis used customer-designed programs coded in Interactive Data Language (IDL).
Nitroxyl (HNO) confers positive inotropy in vivo. Here, it was determined whether HNO action stems from a direct influence on sarcoplasmic reticulum (SR) Ca^2+ cycling, involving enhanced Ca^2+ release from ryanodine receptors (RyR2). Myocytes were isolated from ST mice, suspended in Tyrode's solution (1 mM Ca^2+) and field stimulated (0.5 Hz, 25° C.). Sarcomere shortening (SS) was assessed by real-time image analysis, Ca^2+ transients from Indo-1 fluorescence. RyR2 activity was determined by optical imaging of Ca^2+ release from single Ca^2+ release units.

The target of another assay is T1, RyR2 (Mus musculus, UniProt E9Q401).
T1 construct: endogenous in cells; host or cells: freshly isolated adult mouse cardiac myocytes
The assay can be described thus: Spontaneous Ca2+ sparks and spark frequency in intact murine myocytes. The format is cell-based. Conditions: for effect on Ca2+ sparks in control and AS (0.5 mM) cells: thapsigargin 10 μM, 30 min, ryanodine 10 μM. Here is the method: Freshly isolated mouse cardiac myocytes were loaded with the Ca^2+ indicator fluo-4/AM (Molecular Probes, 20 μM for 30 min). Confocal images were acquired using a confocal laser-scanning microscope (LSM510, Carl Zeiss) with a Zeiss Plan-Neofluor 40× oil immersion objective (NA≈1.3). Fluo-4/AM was excited by an argon laser (488 nm), and fluorescence was measured at >505 nm. Images were taken in the line-scan mode, with the scan line parallel to the long axis of the myocytes. Each image consisted of 512 line scans obtained at 1.92 ms intervals, each comprising 512 pixels at 0.10 μm separation. Digital image analysis used customer-designed programs coded in Interactive Data language (IDL) and a modified spark detection algorithm. Cheng, H. et al., Biophys. J., 76, 606-617 (1999).
Nitroxyl (HNO) confers positive inotropy in vivo. Here, it was determined whether HNO action stems from a direct influence on sarcoplasmic reticulum (SR) Ca^2+ cycling, involving enhanced Ca^2+ release from ryanodine receptors (RyR2). Myocytes were isolated from ST mice, suspended in Tyrode's solution (1 mM Ca^2+) and field stimulated (0.5 Hz, 25° C.). Sarcomere shortening (SS) was assessed by real-time image analysis, Ca^2+ transients from Indo-1 fluorescence. RyR2 activity was determined by optical imaging of Ca^2+ release from single Ca^2+ release units. The HNO donor Angeli's Salt (AS) induced dose-dependent inotropy (SS: 73±31% at 0.5 mM; 131±31% at 1 mM; all n=15, p<0.05 vs. base; <0.1 mM: no effect). In contrast, the NO donor DEA/NO reduced SS by 55-65% at 5-50 μM (both p<0.05 vs. base), with no effect at higher doses. […] However, co-infusion with the thiol-donating compound N-acetyl-L-cysteine (NAC, 3 mM) abolished AS inotropy.

Another assay concerns the target T2, SR Ca2+ pump (SERCA2a) (Mus musculus, UniProt O55143).
T2 construct: Crude cardiac microsomal vesicles containing fragmented sarcoplasmic reticulum (SR) were prepared; from tissue; host or cells: pooled hearts of C57 male mice (crude SR microsomal vesicles)
Briefly: ATP-dependent Ca2+ uptake by murine cardiac SR vesicles (stopped-flow, arsenazo III). The format is biochemical. Here is the method: Crude cardiac microsomal vesicles containing fragmented sarcoplasmic reticulum (SR) were prepared as previously described for rat heart. Froehlich, J. P. et al., J. Mol. Cell. Cardiol., 10, 427-438 (1978). Pooled hearts from C57 male mice sacrificed by cervical dislocation were placed in 0.9% saline on ice, trimmed of atrial and connective tissue, and weighed. The finely minced heart muscle was homogenized in 10 mM NaHCO3 using a Polytron blender and the SR vesicles were separated from the myofilaments, mitochondria and nuclear membranes by differential centrifugation at 8,500 and 45,000×g. SR vesicles suspended in 0.25 M sucrose+10 mM MOPS, pH 7.0 were frozen and stored in liquid nitrogen prior to use. Twenty minutes prior to measuring Ca^2+ uptake, cardiac SR vesicles (1 mg/ml in storage buffer) were incubated with 250 μM AS delivered from a freshly-prepared 10 mM stock solution of AS (Na2N2O3) dissolved in 10 mM NaOH. […] Stopped-flow mixing was used to measure the initial time course of Ca^2+ accumulation by murine cardiac SR vesicles using the Ca^2+ indicator dye, arsenazo III. Membrane vesicles (0.4 mg/ml) suspended in a medium containing 100 mM KCl, 1 mM MgCl2, 50 μM arsenazo III, 5 mM sodium azide, and 20 mM MOPS, pH 7.4, were mixed with an equal volume of an identical medium containing 1 mM Na2ATP at 24° C. in a manually-operated stopped-flow apparatus (Applied Photophysics, Ltd.). The change in [Ca^2+] in the mixing cuvette was monitored using a single-beam UV-VIS spectrophotometer (AVIV, Model 14DS) with a monochromator setting of 650 nm. The total [Ca^2+] in the uptake medium was 0.5 μM, yielding a free [Ca^2+] in equilibrium with the Ca-arsenazo III complex of 0.2 μM (KA=3.3×10^4 M^−1). […] The time-dependent decrease in absorbance at 650 nm, reflecting Ca^2+ uptake by the SR vesicles, was monitored for 30-60 s at 0.1 s intervals. […] The signal change due to vesicle light scattering was evaluated from separate measurements conducted under identical conditions at the isosbestic wavelength of 693 nm. For evaluation of the time course of Ca^2+ uptake, a representative trace at 693 nm was subtracted from each of the individual traces at 650 nm acquired under identical conditions. The kinetic and thermodynamic parameters for Ca^2+ uptake were evaluated by fitting stopped-flow signals to one- and two-exponential decay functions plus a residual term using non-linear regression (Prism, Version 3.03). Residual plots of the difference between the fitted curve and data points were used to evaluate systematic errors in the fits and to calculate the sum-of-squares error used in selecting the best fit.
To test whether HNO directly enhances SR Ca^2+ uptake, its effects on SR membrane vesicles isolated from pooled C57/Bl6 mouse hearts were studied. Crude SR microsomal vesicles were incubated with 250 μM AS prior to measuring ATP-dependent Ca uptake by stopped-flow mixing at 24° C. Arsenazo III, a mid-range Ca indicator, was used to monitor Ca removal from the eravesicular compartment and buffer the free [Ca^2+] at a level producing half-saturation of the Ca^2+ pump (˜0.2 μM).

The test system of assay [2] is cardiac myocytes from WT and Gαq overexpressing FVB/N mice. Briefly: Sarcomere shortening in cardiac myocytes from WT and Gαq overexpressing mice. The format is cell-based, mouse. As to conditions: for enhancement of sarcomere shortening: WT cells. On the procedure:
Cardiac myocytes were isolated from WT and Gαq overexpressing 2-6 month old FVB/N mice, suspended in Tyrode's solution (1 mM calcium) and field stimulated at 0.5 Hz at 23° C. Sarcomere shortening (SS) was assessed by real-time image analysis; data are presented at steady-state (10 minutes drug infusion).

Assay [3] in a line: End-diastolic pressure-volume relationship (EDPVR) in chronically instrumented dogs with pacing-induced cardiac failure. In kind it is in vivo. As to conditions: CHF dog preparations. Here is the method:
Adult male mongrel dogs (22-25 kg) were chronically instrumented for pressure-dimension analysis as described. See, Paolocci et al., “Positive Inotropic and Lusitropic Effects of HNO/NO− in Failing Hearts: Independence from Beta-Adrenergic Signaling,” Proc. Natl. Acad. Sci. USA., 100, 5537-5542 (2003); and Senzaki et al., Circulation, 101, 1040-1048 (2000). Animals were anesthetized with 1% to 2% halothane after induction with sodium thiopental (10-20 mg/kg, i.v.). The surgical/experimental animal protocol was approved by the Johns Hopkins University Animal Care and Use Committee. […] Cardiac failure was induced by rapid ventricular pacing for 3 weeks as described. See, Paolocci et al., supra, and Senzaki et al., supra.
Hemodynamic data were digitized at 250 Hz. […] These relations strongly correlate with results from pressure-volume data in normal and failing hearts, as previously validated. Cardiovascular function was assessed by stroke dimension, fractional shortening (stroke dimension/end-diastolic dimension [EDD]), estimated cardiac output (stroke dimension×HR), peak rate of pressure rise (dP/dtmax), end-systolic elastance (Ees, slope of end-systolic pressure-dimension relation [ESPDR]), the slope of dP/dtmax-EDD relation (DEDD) (see, Little, Circ Res., 56:808-815 (1985)), pre-recruitable stroke work (PRSW), (based on dimension-data), estimated arterial elastance (Ea, end systolic pressure/stroke dimension) and estimated total resistance (RT, […]). Ees, DEDD and PRSW provide load-insensitive contractility measures.
The end-diastolic pressure-volume relationship (EDPVR) was determined applying non-linear regression analysis to the end-diastolic pressure and volume points (Ped and Ved, respectively), according to Kass, Cardiol Clin., 18, 571-86 (2000) (Review).
In order to evaluate the impact of each pharmacological intervention on the EDPVR, changes in end-diastolic pressure from baseline (ΔPed) at volumes providing baseline end-diastolic pressure of […] mmHg EDP (V10, V15, V20, respectively) were determined (FIG. 5).

The record followed here is US20160166604A1, “Thiol-Sensitive Positive Inotropes” (priority 2005, published 2016).

“Also recorded” adds a separate entry of the source.

T1 sequence (E9Q401 whole entry): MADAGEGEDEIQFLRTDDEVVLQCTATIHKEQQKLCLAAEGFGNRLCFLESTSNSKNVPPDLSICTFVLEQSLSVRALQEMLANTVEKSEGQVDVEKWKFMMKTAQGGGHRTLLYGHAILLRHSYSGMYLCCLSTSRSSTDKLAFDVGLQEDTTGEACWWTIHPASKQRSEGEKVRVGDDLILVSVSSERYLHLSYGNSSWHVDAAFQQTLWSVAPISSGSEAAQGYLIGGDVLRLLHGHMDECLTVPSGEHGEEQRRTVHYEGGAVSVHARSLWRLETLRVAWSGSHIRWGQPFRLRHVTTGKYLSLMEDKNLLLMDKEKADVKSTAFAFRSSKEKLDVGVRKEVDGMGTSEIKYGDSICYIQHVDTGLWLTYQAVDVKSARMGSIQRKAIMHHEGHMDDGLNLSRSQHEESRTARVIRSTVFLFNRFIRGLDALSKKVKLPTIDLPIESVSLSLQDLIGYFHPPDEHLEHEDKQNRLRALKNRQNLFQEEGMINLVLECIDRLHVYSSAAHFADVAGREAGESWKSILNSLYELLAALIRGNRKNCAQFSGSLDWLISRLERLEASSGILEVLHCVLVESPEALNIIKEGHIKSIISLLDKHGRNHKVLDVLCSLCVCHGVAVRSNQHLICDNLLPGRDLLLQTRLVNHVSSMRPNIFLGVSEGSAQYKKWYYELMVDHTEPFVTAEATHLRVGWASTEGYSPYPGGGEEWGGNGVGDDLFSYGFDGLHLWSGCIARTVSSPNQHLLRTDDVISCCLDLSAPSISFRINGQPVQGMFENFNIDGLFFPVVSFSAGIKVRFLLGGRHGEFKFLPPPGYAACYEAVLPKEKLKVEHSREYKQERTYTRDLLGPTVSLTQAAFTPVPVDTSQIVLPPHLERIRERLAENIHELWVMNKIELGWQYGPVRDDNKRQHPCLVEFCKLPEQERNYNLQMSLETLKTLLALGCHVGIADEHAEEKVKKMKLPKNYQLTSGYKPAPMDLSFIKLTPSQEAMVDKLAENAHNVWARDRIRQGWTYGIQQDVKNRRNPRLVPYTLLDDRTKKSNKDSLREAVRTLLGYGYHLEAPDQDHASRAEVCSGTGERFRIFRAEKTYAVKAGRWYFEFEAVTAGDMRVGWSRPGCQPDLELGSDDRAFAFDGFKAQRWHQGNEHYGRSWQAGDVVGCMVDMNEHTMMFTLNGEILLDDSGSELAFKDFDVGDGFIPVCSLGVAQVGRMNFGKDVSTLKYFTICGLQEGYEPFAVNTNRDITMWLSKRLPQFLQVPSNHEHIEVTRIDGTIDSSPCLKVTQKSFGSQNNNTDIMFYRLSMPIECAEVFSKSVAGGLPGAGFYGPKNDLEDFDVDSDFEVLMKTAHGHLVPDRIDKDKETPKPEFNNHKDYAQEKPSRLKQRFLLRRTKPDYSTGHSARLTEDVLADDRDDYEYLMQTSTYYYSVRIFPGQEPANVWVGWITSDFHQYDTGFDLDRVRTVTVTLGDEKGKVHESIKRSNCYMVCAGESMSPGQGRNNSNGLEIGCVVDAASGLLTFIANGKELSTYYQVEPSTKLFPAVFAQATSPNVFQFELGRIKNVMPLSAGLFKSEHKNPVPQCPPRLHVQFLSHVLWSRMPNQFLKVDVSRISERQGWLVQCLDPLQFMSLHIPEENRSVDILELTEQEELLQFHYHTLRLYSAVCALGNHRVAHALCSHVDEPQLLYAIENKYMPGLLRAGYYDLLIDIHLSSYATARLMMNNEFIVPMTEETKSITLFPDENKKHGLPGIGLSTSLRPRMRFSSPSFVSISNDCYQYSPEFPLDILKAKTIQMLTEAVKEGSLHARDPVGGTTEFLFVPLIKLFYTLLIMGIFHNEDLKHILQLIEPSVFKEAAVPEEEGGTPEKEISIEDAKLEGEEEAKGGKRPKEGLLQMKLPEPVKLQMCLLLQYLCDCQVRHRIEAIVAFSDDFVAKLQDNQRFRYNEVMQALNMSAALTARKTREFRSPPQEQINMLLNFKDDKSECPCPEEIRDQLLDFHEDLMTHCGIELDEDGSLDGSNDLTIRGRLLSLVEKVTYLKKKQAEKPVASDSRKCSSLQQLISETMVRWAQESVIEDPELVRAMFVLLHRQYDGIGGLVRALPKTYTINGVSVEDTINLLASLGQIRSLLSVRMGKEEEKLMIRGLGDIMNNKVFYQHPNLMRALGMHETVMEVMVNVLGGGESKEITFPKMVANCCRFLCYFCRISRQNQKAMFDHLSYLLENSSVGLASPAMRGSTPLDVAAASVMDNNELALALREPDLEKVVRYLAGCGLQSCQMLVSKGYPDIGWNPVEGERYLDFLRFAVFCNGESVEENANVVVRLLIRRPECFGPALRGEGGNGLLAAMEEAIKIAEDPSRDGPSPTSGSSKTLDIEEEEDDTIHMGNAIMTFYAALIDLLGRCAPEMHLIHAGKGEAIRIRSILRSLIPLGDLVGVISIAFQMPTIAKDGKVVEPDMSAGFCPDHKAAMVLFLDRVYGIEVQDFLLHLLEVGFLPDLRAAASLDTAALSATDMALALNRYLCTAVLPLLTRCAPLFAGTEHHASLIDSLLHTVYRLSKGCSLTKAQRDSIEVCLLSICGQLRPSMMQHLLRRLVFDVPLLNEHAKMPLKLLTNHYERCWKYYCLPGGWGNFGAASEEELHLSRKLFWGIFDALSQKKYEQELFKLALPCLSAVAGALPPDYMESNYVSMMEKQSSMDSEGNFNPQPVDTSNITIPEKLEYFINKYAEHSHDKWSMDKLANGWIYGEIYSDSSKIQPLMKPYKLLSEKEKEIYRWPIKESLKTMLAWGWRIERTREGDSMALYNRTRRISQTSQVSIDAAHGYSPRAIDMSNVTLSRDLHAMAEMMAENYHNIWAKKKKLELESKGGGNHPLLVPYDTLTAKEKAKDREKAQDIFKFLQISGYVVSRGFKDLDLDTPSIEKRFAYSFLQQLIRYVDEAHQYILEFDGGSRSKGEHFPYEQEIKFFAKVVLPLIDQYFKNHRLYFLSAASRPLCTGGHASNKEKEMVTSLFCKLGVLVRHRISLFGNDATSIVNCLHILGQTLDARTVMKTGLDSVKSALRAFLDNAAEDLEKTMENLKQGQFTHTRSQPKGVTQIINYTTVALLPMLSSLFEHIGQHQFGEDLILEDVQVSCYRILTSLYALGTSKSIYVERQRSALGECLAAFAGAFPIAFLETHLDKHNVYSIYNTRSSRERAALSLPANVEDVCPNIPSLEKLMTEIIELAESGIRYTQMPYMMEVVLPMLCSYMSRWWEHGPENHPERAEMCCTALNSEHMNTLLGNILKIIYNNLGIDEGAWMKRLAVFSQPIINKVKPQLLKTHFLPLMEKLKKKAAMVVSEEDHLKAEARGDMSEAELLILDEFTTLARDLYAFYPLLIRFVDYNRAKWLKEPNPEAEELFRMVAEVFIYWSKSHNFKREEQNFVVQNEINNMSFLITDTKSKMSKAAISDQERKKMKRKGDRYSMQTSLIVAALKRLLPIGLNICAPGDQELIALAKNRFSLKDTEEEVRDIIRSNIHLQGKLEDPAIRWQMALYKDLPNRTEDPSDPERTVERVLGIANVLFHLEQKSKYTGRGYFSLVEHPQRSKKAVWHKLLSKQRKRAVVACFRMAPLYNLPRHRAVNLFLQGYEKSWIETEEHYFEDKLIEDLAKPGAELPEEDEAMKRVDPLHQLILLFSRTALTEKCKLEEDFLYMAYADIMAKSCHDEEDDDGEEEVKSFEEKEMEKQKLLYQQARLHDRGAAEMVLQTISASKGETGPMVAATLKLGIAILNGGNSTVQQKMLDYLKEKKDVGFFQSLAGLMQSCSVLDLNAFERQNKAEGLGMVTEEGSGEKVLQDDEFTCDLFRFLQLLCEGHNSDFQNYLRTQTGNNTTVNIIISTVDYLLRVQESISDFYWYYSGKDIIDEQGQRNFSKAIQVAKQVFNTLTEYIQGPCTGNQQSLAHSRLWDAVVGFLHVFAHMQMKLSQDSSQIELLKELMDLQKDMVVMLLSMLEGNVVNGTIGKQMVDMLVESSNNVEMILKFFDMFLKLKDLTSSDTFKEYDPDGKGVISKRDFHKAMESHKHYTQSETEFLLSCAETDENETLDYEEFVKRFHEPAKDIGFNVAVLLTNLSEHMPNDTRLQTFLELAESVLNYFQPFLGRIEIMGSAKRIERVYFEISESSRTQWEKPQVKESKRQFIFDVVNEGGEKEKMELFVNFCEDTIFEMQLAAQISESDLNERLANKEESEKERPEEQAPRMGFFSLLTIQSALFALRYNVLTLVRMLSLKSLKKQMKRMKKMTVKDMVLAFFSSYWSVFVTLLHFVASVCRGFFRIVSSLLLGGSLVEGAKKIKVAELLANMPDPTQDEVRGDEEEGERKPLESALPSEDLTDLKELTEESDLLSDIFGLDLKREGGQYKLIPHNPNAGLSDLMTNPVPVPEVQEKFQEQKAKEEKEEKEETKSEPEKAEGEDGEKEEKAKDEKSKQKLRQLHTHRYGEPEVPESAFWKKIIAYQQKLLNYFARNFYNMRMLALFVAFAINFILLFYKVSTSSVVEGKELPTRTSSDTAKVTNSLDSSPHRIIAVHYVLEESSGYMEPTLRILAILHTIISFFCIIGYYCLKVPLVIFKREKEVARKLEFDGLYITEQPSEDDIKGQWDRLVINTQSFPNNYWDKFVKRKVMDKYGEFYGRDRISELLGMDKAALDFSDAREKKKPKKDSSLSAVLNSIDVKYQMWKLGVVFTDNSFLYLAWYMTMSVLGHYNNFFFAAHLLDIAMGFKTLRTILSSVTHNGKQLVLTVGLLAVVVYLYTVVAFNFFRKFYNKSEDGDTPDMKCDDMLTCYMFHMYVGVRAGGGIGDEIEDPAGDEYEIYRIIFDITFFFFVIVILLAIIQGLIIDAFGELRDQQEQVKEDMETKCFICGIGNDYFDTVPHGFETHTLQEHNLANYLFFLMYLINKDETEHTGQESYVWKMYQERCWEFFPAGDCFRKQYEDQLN

Regarding `O=NO` [NO2^−, nitrite], in assay [1] (25-250 μM NO2- and higher or lower doses), the “effect on sarcomere shortening” value is given as “no effect”.

On to `C/C=C(/C)C(=O)O[C@H]1C(C)=C2[C@H]([C@@H]1OC(=O)CCCCCCC)[C@@](C)(OC(C)=O)C[C@H](OC(=O)CCC)[C@@]1(O)[C@H]2OC(=O)[C@@]1(C)O` [thapsigargin], for which the “effect on Ca2+ sparks in control and AS (0.5 mM) cells” value on RyR2 is reported as “abolished”. Also, at SR Ca2+ pump (SERCA2a) (thapsigargin 10 μM), the “effect on SR vesicle Ca2+ uptake” value was “abolished”.

As to `C=C[C@@]1(C)CC(=O)[C@]2(O)[C@@]3(C)[C@@H](O)CCC(C)(C)[C@@H]3[C@H](O)[C@H](OC(C)=O)[C@@]2(C)O1` [FSK, forskolin], the “increase in sarcomere shortening” value turned out to be 85±9% in assay [2] (Gαq myocytes, 25 nM FSK) and 158±62% in assay [2] (Gαq myocytes, 100 nM FSK).

Take `CC(C)N[N+]([O-])=N[O-].[Na+]` [IPA/NO, isopropylamine diazeniumdiolate]: the “effect on end-diastolic pressure-volume relationship (EDPVR)” value (from here on “effect … (EDPVR)”) in assay [3] is recorded as “downward shift; also recorded: declined significantly”.

Turning to ryanodine, the “effect on Ca2+ sparks in control and AS (0.5 mM) cells” value on RyR2 is given as “abolished”.

Take `CC(C)NCC(O)c1ccc(O)c(O)c1` (centres unmarked) [ISO, isoproterenol]: in assay [1] (ISO 2.5 nM, n=30), the “increase in sarcomere shortening” value was 100±27%. Besides, in assay [1] (Rp-CPT-cAMPs 100 μM pre-treatment), the “effect of PKA inhibitor Rp-CPT-cAMPs on the agent's enhancement of sarcomere shortening” value is “blunts”. The contractile response result in assay [2] (Gαq myocytes, ISO 2.5 and 10 nM) is recorded as “did not elicit any contractile response”. Moreover, the “enhancement of sarcomere shortening” value in assay [2] (ISO 2.5 nM) stood at 74±24%; in assay [2] (ISO 10 nM), 250±75%.

With `CNc1ccc2oc(C[C@H]3O[C@@]4(CC[C@H]3C)O[C@H]([C@H](C)C(=O)c3ccc[nH]3)[C@H](C)C[C@H]4C)nc2c1C(=O)O` [A23187], at SR Ca2+ pump (SERCA2a) (A23187 pre-incubation, 5 μg ionophore/mg SR protein), the “decrease of total Ca2+ uptake” value is listed as more than 50%.

For `CCN(CC)[N+]([O-])=N[O-].[Na+]` [DEA/NO, sodium 2-(N,N-diethylamino)-diazenolate-2-oxide], in assay [1] (DEA/NO 0.25 mM, AS 0.5 mM), the “effect of co-application on ISO (2.5 nM)-stimulated sarcomere shortening” value is recorded as “markedly blunted”. In assay [1] (DEA/NO 5-50 μM), the “reduction of sarcomere shortening” value is recorded as 55-65%. Besides, the “effect of PKG inhibitor Rp-8Br-cGMPs on the agent's inotropy” value in assay [1] (Rp-8Br-cGMPs 10 μM pre-treatment) is given as “modest positive response”. Also, the “reproduction of AS increase in sarcomere shortening by equimolar NO donor” value in assay [1] (equimolar to AS) is “not reproduced”. Also, the “effect on sarcomere shortening” value was “no effect; also recorded: minimal changes” in assay [1] (higher doses) and “slight depression” in assay [1] (low doses). Further, the “effect on Ca2+ spark frequency” value at RyR2 (DEA/NO, increasing / equimolar doses) was “no effect; also recorded: did not significantly affect”. Further, the “effect … (EDPVR)” value in assay [3] is on record as “parallel down-ward shift”.

For the molecule `O=[N+]([O-])OCC(CO[N+](=O)[O-])O[N+](=O)[O-]` [NTG, nitroglycerin], the entries for the “effect … (EDPVR)” value in assay [3] and in assay [3] (listed as nitroglycerin) were “parallel down-ward shift” and “parallel downward shift”, respectively.
